Assay [1] concerns the target T1, CCK1 receptors (Cavia porcellus, UniProt Q63931).
T1 construct: The pancreatata were homogenised in 40 ml ice-cold HEPES buffer using a polytron; from tissue; host or cells: pancreas membranes of male Dunkin Hartley guinea-pigs
T1 sequence (Q63931 1-430): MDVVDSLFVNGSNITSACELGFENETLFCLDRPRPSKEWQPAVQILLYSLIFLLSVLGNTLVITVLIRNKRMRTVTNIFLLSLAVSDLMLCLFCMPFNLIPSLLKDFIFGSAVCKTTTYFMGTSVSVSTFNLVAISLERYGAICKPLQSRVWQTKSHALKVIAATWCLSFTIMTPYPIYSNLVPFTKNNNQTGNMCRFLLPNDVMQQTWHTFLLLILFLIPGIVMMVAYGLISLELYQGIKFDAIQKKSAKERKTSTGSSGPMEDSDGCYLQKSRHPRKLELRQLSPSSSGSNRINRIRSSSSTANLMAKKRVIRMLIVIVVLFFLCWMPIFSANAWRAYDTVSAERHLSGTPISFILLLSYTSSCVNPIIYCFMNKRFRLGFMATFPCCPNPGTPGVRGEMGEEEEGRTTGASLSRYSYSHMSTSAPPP
Description: CCK1 binding assay, guinea-pig pancreas membranes, [125I]-CCK8(S). The note with it: [125I]-CCK8(S) 200 pM, 150 minutes at 21±3° C; for Ki: read-out: Guinea-Pig Pancreas CCK1 pKi (converted). The procedure: The compounds of certain examples were also tested in a CCK1 binding assay as follows:
The pancreatata were removed from male guinea-pigs (200-300 g; Dunkin Hartley) and placed in ice-cold HEPES buffer (pH 7.2@21±3° C.). The pancreatata were homogenised in 40 ml ice-cold HEPES buffer using a polytron (Brinkmann, PT10, setting 10) 4×1 second. The homogenate was centrifuged at 39,800 g for 15 min at 4° C. The supernatant was discarded and the pellet re-suspended using a Teflon-in-glass homogeniser in 20 volumes of fresh buffer and re-centrifuged as above. The final pellet was re-suspended using a Teflon-in-glass homogeniser to a tissue concentration of 1 mg.ml^−1 (original wet weight), and filtered through a 500 μm pore-size Nytex mesh.
The membranes (400 μl; containing 0.375 μM PD134,308) were incubated for 150 minutes at 21±3° C. in a final volume of 0.5 ml with HEPES buffer containing [^125I]-CCK8 (S) (50 μl; 200 pM) and competing compound. Total and non-specific binding of [^125I]-CCK8 (S) were defined using 50 μl of buffer and 50μ of 100 nM L-364,718 respectively. The assay was terminated by rapid filtration through pre-soaked Whatman GF/B filters using a Brandell Cell Harvetser. The filters were washed (3×3 ml) with ice-cold 50 mM Tris HCl (pH 7.4@4° C.) and bound radioactivity was determined by counting (1 min) in a gamma counter.

The target of assay [2] is T2, gastrin (CCK2) receptors (Rattus norvegicus, UniProt P30553).
T2 construct: The stomach was excised and flushed with ca. 1 ml of unbuffered physiological saline solution; from tissue; host or cells: isolated whole stomach of immature rats (33-50 g, ca. 21 days old)
T2 sequence (P30553 1-452): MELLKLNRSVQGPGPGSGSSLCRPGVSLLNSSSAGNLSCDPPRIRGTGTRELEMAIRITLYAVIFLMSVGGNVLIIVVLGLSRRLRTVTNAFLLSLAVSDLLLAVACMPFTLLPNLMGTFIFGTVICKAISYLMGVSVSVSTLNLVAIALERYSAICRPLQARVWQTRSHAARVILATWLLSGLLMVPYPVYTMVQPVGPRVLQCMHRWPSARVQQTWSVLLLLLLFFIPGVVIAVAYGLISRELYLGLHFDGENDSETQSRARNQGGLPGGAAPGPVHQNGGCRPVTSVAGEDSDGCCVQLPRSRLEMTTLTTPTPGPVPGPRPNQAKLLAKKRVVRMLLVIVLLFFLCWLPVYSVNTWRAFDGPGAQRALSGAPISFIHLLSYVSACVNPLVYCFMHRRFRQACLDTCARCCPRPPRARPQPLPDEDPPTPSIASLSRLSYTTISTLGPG
Description: immature rat stomach assay, gastrin (CCK2) antagonist activity. As to conditions: isolated immature rat stomach, antagonism of pentagastrin-stimulated acid secretion, 60 min incubation; for Kb: read-out: Rat stomach pKB (converted). The procedure: The compounds of the examples were tested for gastrin (CCK2) antagonist activity in an immature rat stomach assay. The procedure was as follows:
The oesophagus of immature rats (33-50 g, ca. 21 days old) was ligated at the level of the cardiac sphincter and the duodenal sphincter was cannulated. The stomach was excised and flushed with ca. 1 ml of unbuffered physiological saline solution. The fundus was punctured and cannulated. A further 4-5 ml of unbuffered solution was flushed through the stomach to ensure the preparation was not leaking. The stomach was lowered into a jacketed organ bath containing 40 ml of buffered solution containing 3×10^−8 M 5-methylfurmethide, maintained at 37° and gassed vigorously with 95% O2/5% CO2. The stomach was continuously perfused at a rate of 1 ml min^−1 with unbuffered solution gassed with 100% O2 with perfusate passing over an internally referenced pH-electrode fixed 12 cm above the stomach.
After 120 min of stabilisation the drugs were added directly to the serosal solution in the organ bath and after a further 60 min cumulative pentagastrin dose-response curves were started. Changes in acid secretion were monitored and the curves analysed according to Black et al., Br. J. Pharmacol., 1985, 86, 581.

As for “2-{5-[5-(Adamantan-1-yloxymethyl)-2-cyclohexyl-1H-imidazol-2-yl]-[1,3,4]oxadiazol-2-yl}-isonicotinic acid [Example 14]”, the “Guinea-Pig Pancreas CCK1 pKi” value in assay [1] worked out at 5.01. The “Rat stomach pKB” value in assay [2] is listed as 5.98.

On to “3-{2-[5-(2-Adamantan-1-yl-ethyl)-2-o-tolyl-1H-imidazol-4-yl]-[1,2,4]oxadiazol-3-yl}-benzoic acid [Example 5]”, for which, in assay [1], the “Guinea-Pig Pancreas CCK1 pKi” value is given as 6.40. In assay [2], the “Rat stomach pKB” value is 5.76.

Regarding “3-{2-[5-(Adamantan-1-yloxymethyl)-2-cyclohexyl-1H-imidazol-4-yl]-[1,2,4]oxadiazol-3-yl}-benzoic acid [Example 3]”, the “Guinea-Pig Pancreas CCK1 pKi” value in assay [1] is on record as 6.37. Besides, the “Rat stomach pKB” value in assay [2] stood at 8.66.

As for “3-{5-[5-(Adamantan-1-yloxymethyl)-2-cyclohexyl-1H-imidazol-4-yl]-[1,3,4]triazol-3-yl}-benzoic acid [Example 10]”, the “Guinea-Pig Pancreas CCK1 pKi” value in assay [1] is 6.41. Moreover, the “Rat stomach pKB” value in assay [2] is 8.28.

Regarding “3-{5-[5-(Adamantan-1-yloxymethyl)-2-cyclohexyl-3-hydroxy-1H-imidazol-4-yl]-[1,3,4]oxadiazol-2-yl}-benzoic acid [Example 17]”, in assay [1], the “Guinea-Pig Pancreas CCK1 pKi” value is recorded as 5.23. Moreover, the “Rat stomach pKB” value in assay [2] was 6.90.

For the compound `O=C(O)c1cccc(-c2coc(-c3nc(C4CCCCC4)[nH]c3COC34CC5CC(CC(C5)C3)C4)n2)c1` [Example 1, 3-{2-[5-(Adamantan-1-yloxymethyl)-2-cyclohexyl-1H-imidazol-4-yl}-oxazol-4-yl}-benzoic acid], in assay [1], the Ki is 0.741 µM. The Kb in assay [2] was 0.00794 µM.

Turning to `Cc1ccccc1-c1nc(-c2nc(-c3cccc(C(=O)O)c3)co2)c(CCC23CC4CC(CC(C4)C2)C3)[nH]1` [Example 2, 3-{2-[5-(2-Adamantan-1-yl-ethyl)-2-o-tolyl-1H-imidazol-4-yl]oxazol-4-yl}-benzoic acid], in assay [1], the Ki was 1.17 µM. Further, the Kb in assay [2] is 0.0182 µM.

In the case of `O=C(O)c1cccc(-c2noc(-c3nc(C4CCCCC4)[nH]c3CCC34CC5CC(CC(C5)C3)C4)n2)c1` [Example 4, 3-{2-[5-(2-Adamantan-1-yl-ethyl)-2-cyclohexyl-1H-imidazol-4-yl]-[1,2,4]oxadiazol-3-3-yl}-benzoic acid], the Ki in assay [1] was 0.339 µM. Further, the Kb in assay [2] was 0.00692 µM.

Consider `O=C(O)c1cccc(-c2csc(-c3nc(C4CCCCC4)[nH]c3COC34CC5CC(CC(C5)C3)C4)n2)c1` [Example 6, 3-{2-[5-(Adamantan-1-yloxymethyl)-2-cyclohexyl-1H-imidazol-4-yl]-thiazol-4-yl}-benzoic acid], for which the Ki in assay [1] was 1.15 µM. Moreover, in assay [2], the Kb was 0.00269 µM.

For the compound `O=C(O)c1cccc(-c2c[nH]c(-c3nc(C4CCCCC4)[nH]c3COC34CC5CC(CC(C5)C3)C4)n2)c1` [Example 7, 3-[5′-(Adamantan-1-yloxymethyl)-2′cyclohexyl-1H,1H′-[2,4′]biimidazolyl-4-yl]-benzoic acid], the Ki in assay [1] is 0.269 µM. Moreover, in assay [2], the Kb is 0.0977 µM.

`O=C(O)c1cccc(-c2nnc(-c3nc(C4CCCCC4)[nH]c3COC34CC5CC(CC(C5)C3)C4)s2)c1` [Example 8, 3-{5-[5-(Adamantan-1-yloxymethyl)-2-cyclohexyl-1H-imidazol-4-yl]-[1,3,4]thiadiazol-2-yl}-benzoic acid]: the Ki in assay [1] was 0.135 µM. In addition, the Kb in assay [2] was 0.00372 µM.

Take `O=C(O)c1cccc(-c2nnc(-c3nc(C4CCCCC4)[nH]c3COC34CC5CC(CC(C5)C3)C4)o2)c1` [Example 9, 3-{5-[5-(Adamantan-1-yloxymethyl)-2-cyclohexyl-1H-imidazol-4-yl]-[1,3,4]oxadiazol-2-yl}-benzoic acid]: the Ki in assay [1] is 0.55 µM. For the same compound, in assay [2], the Kb was 0.00245 µM.

In the case of `O=C(O)c1cccc(C2CN=C(c3nc(C4CCCCC4)[nH]c3COC34CC5CC(CC(C5)C3)C4)O2)c1` (centres unmarked) [Example 11, 3-{2-[5-(Adamantan-1-yloxymethyl)-2-cyclohexyl-1H-imidazol-4-yl]-4,5-dihydro-oxazol-5-yl}-benzoic acid], in assay [2], the Kb is 0.191 µM.

With `O=C(O)c1cccc(-c2nnc(-c3nc(C4CCCCC4)[nH]c3COC34CC5CC(CC(C5)C3)C4)o2)n1` [Example 12, 6-{5-[5-(Adamantan-1-yloxymethyl)-2-cyclohexyl-1H-imidazol-4-yl]-[1,3,4]oxadiazol-2-yl}-pyridine-2-carboxylic acid], the Ki in assay [1] is 2.14 µM.

As to `O=C(O)c1cncc(-c2nnc(-c3nc(C4CCCCC4)[nH]c3COC34CC5CC(CC(C5)C3)C4)o2)c1` [Example 13, 5-{5-[5-(Adamantan-1-yloxymethyl)-2-cyclohexyl-1H-imidazol-4-yl]-[1,3,4]oxadiazo-2-yl}-nicotinic acid], the Ki in assay [1] is 3.24 µM. In addition, the Kb in assay [2] is 0.0229 µM.

On to `O=C(O)c1cccc(-c2nnc(-c3nc(C45CCC(CC4)CC5)[nH]c3COC34CC5CC(CC(C5)C3)C4)o2)c1` [Example 16, 3-{5-[5-(Adamantan-1-yloxymethyl)-2-bicyclo[2.2.2]oct-1-yl-1H-imidazol-4-yl]-[1,3,4]oxadiazol-2-yl}-benzoic acid], for which, in assay [1], the Ki is 0.468 µM. Also, in assay [2], the Kb was 0.00191 µM.

As to `O=C(O)c1cccc(-c2nc(-c3nc(C4CCCCC4)[nH]c3COC34CC5CC(CC(C5)C3)C4)no2)c1` [Example 18, 3-{3-[5-(Adamantan-1-yloxymethyl)-2-cyclohexyl-1H-imidazol-4-yl]-[1,2,4]oxadiazol-5-yl}-benzoic acid], the Ki in assay [1] was 0.501 µM. Further, the Kb in assay [2] is 0.0024 µM.

Source of the values: US6878734B2, “Gastrin and cholecystokinin receptor ligands(II)” (James Black Foundation Limited, priority 2000, dated 2005).
